Reference: PubChem BioAssay (NCI)
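48-hour exposure; five concentrations; linearly interpolated endpoints. Abbreviation: GI50, concentration required for 50% inhibition of growth. TGI marks complete inhibition of growth.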

Key:
Assay in all cases: DTP human tumour cell line panel, 48 h
[1] = system: A549 NSCLC
[2] = system: ACHN renal
[3] = system: KM12 colon
[4] = system: OVCAR-3 ovarian
[5] = system: OVCAR-5 ovarian
[6] = system: RXF 393 renal
[7] = system: SF-539 CNS
[8] = system: UO-31 renal
[9] = system: LOX IMVI melanoma
[10] = system: MCF7 breast

Row | SMILES | TGI [1] [µM] | TGI [2] [µM] | TGI [3] [µM] | TGI [4] [µM] | TGI [5] [µM] | TGI [6] [µM] | TGI [7] [µM] | TGI [8] [µM] | TGI [9] [µM] | GI50 [1] [µM] | GI50 [2] [µM] | GI50 [3] [µM] | GI50 [9] [µM] | GI50 [4] [µM] | GI50 [5] [µM] | GI50 [7] [µM] | GI50 [8] [µM] | GI50 [10] [µM] | TGI [10] [µM] | GI50 [6] [µM]
1 | CC(C)(C)OC(=O)N1C2CCCC23O[C@@H]1c1cc2c(cc1C3=O)OCO2 (some centres undefined) | > 100 | > 100 | > 100 | 40.2 | > 100 | 83.2 | 55.4 | > 100 |  |  |  |  |  |  |  |  |  |  |  | 
2 | NC(=S)N/N=C1\CCCC\C1=C/c1ccccc1 | > 100 | > 100 | > 100 | > 100 | 70.4 | > 100 | > 100 | > 100 | > 100 |  |  |  |  |  |  |  |  |  |  | 
3 | CCOc1ccc(N=Cc2c3ccccc3nc3ccccc23)cc1 | > 100 | > 100 | 84.7 | > 100 |  | > 100 | > 100 | > 100 | > 100 |  |  |  |  |  |  |  |  |  |  | 
4 | CCCCCCCCCCCCCCCCCCC1=C(O)C(=O)C=C(OC)C1=O | > 100 | > 100 | > 100 | > 100 | > 100 | > 100 | > 100 | > 100 |  |  |  |  |  |  |  |  |  |  |  | 
5 | NCCN.O=C([O-])[O-].O=C([O-])[O-].[Co+3].[K+] | > 100 | > 100 | > 100 | > 100 | > 100 |  | > 100 | > 100 | > 100 | > 100 | > 100 | > 100 | > 100 | > 100 | > 100 | > 100 | > 100 |  |  | 
6 | CC(=O)[CH-]C(=O)c1ccccc1.CC(=O)[CH-]C(=O)c1ccccc1.O=S(=O)([O-])c1cc([O-])c2c([O-])cc(S(=O)(=O)[O-])cc2c1.[Na+].[Ti+4] | > 100 | > 100 | > 100 | > 100 | > 100 |  | > 100 | > 100 | > 100 | > 100 | > 100 | 30.2 | > 100 | > 100 | > 100 | 83.3 | > 100 |  |  | 
7 | CSc1ccc2c(cc1=O)[C@@H](NC(=O)c1cc(O)c(O)c(O)c1)CCc1cc(O)c(O)c(O)c1-2 | 92 | > 100 | 46.8 | 70 | 31.3 |  | 52.3 | 83.8 |  |  |  |  |  |  |  |  |  |  |  | 
8 | C[P+](C)(C)c1ccccc1 | > 100 | > 100 | > 100 | > 100 | > 100 | > 100 | > 100 | > 100 | > 100 |  |  |  |  |  |  |  |  |  |  | 
9 | O=C1CC2CCN(C(=O)c3ccccc3)CC2CCN1 (centres undefined) | > 100 | > 100 | > 100 | > 100 | > 100 | > 100 | > 100 | > 100 | > 100 |  |  |  |  |  |  |  |  |  |  | 
10 | C=CCC1(C)CCCCC1(O)CS(=O)c1ccccc1 (centres undefined) | > 100 | > 100 | > 100 | > 100 | > 100 | > 100 | > 100 | > 100 | > 100 |  |  |  |  |  |  |  |  |  |  | 
11 | C1=NC(N(Cc2ccccc2)Cc2ccccc2)N(Cc2ccccc2)N1 (centres undefined) | 37.3 | 57 | 31.1 | 27.3 | 42 | 30.4 | 29.5 | 33.9 | 30.4 |  |  |  |  |  |  |  |  |  |  | 
12 | Nc1ccc(C2=N/C(=C\c3cccc(N)c3)C(=O)O2)cc1 | > 100 | > 100 | > 100 | > 100 | > 100 | > 100 | > 100 | > 100 |  |  |  |  |  |  |  |  |  |  |  | 
13 | COc1cc(C(=O)O[C@H](C(N)=O)[C@]2(C)CO2)c2cccc(C)c2c1 | > 100 |  |  | 8.21 | 6.01 | 1.1 | < 0.0465 | 0.33 |  |  |  |  |  | < 0.0317 | 0.766 | < 0.0121 | 0.0404 | < 0.0367 | > 100 | 0.148
14 | C=C1C(=O)OC2C1CC(OC(C)=O)/C(C)=C/CCC1(C)OC21 (centres undefined) | > 100 | > 100 | > 100 | > 100 | > 100 |  | > 100 | > 100 | > 100 |  |  |  |  |  |  |  |  |  | > 100 | 
15 | Cc1ccc(N2C(=O)N(c3ccc(C)cc3)C3(SC=NN3C)C2=O)cc1 (centres undefined) | > 100 | > 100 | > 100 | > 100 |  | > 100 | > 100 | > 100 | > 100 |  |  |  |  |  |  |  |  |  |  | 
16 | COc1cc2c3c(n(CCCN(CCO)CCO)c(=O)c2cc1OC)-c1cc2c(cc1C3=O)OCO2 | 13 | 0.0855 | 1.84 | 0.295 | 1.31 | > 100 | < 0.0264 |  | 0.158 | 0.155 | < 0.01 | 0.365 | < 0.01 | 0.062 | 0.209 | < 0.01 |  | < 0.01 | > 24.7 | 4.46
17 | Cn1cc(-c2csc(-c3cn(C)c4ccc(F)cc34)n2)c2cnccc21 | 3.27 | 3.26 | 3.36 | 3.48 | 3.15 | 3.05 | 3.35 | 3.09 |  | 1.67 | 1.84 | 1.79 |  | 1.95 | 1.68 | 1.85 | 1.64 | 1.93 | 3.66 | 1.61
18 | CCOC(=O)C(C)(c1c(C)[nH]c2ccccc12)c1c(C)[nH]c2ccccc12 | 49.7 | 56.6 | 33.2 | 34 | 35.5 | 25.8 | 39.1 | 35 |  |  |  |  |  |  |  |  |  |  |  | 
19 | O=C1c2ccccc2C(=O)N1C/C=N/NS(=O)(=O)c1ccc(Br)cc1 | > 100 | > 100 | > 100 | > 100 | > 100 |  | > 100 | > 100 |  |  |  |  |  |  |  |  |  |  |  | 
20 | C[Si](C)(C)CN1C(=O)c2ccccc2C1(O)c1ccccc1 (centres undefined) | > 100 | > 100 | > 100 | > 100 | > 100 | > 100 | > 100 | > 100 | > 100 |  |  |  |  |  |  |  |  |  |  | 
21 | CC1CCC(C(C)(C)c2ccccc2)C(=O)C1 (centres undefined) | > 100 | > 100 | > 100 | > 100 | > 100 |  | > 100 | > 100 | > 100 |  |  |  |  |  |  |  |  |  |  | 
